In series [1] the test system is mucoid FRD1 and non-mucoid FRD1/pmucA. To be noted: anaerobic 15 mM NO2-, pH 6.5, after 5 days, cited from earlier work.
A further series has as its system FRD1/pmucA. Particulars: mucA complemented strain, pH values between 6.0 and 7.5; cited from earlier work.
The test system of the next series is P. aeruginosa biofilm. To be noted: acidified nitrite 15, 25, 35 mM and EDTA 1, 5, 10 mM alone, aerobic and anaerobic, 24 hours treatment. As to the method:
In order to determine the efficacy of the combination treatment for biofilm elimination, we employed a Crystal Violet assay. This allows us to determine the total biomass of the biofilm.
Crystal Violet stains biofilm mass which is a quantitative measure of biofilm density/thickness, but not necessarily viability (live/dead) of the biomass.
Cultures are grown for 24 hours aerobically or anaerobically, and then treated for 24 hours before assay.
P. aeruginosa was allowed to adhere to 96 well polystyrene 96 well microplates at incubate at 37° C. under aerobic vs. anaerobic conditions. The biofilms were washed with PBS and stained with 1% crystal violet (CV) for 15 minutes at room temperature. The CV was removed and the stained bacteria washed an additional 3 times prior to solubilization of the CV with 95% ethanol. The absorbance at 590 nm was monitored using a microplate reader.

The conditions of series [2]: cited from earlier work.
The next series concerns non-mucoid FRD1/pmucA. To be noted: cited from earlier work.
The test system of another series is anaerobic FRD1 biofilms. To be noted: 15 mM NO2-, cited from earlier work.
For the next series, the system named is PA strain PAO1. Nature of the series: Optical density growth/viability of PAO1 with A-NO2-, EDTA and/or tobramycin. In kind it is cell-based, Pseudomonas aeruginosa. Particulars: for growth of PAO1: 15 mM A-NO2- or 1 mM EDTA and 2 μg/ml TOBI. As to the method:
FIG. 2 represent optical density measurements with control (untreated) bacteria arbitrarily set to 1.0 after 24 and 48 hr of growth at 37° C. in a standard rich medium known Luria broth (LB). Another experiment included the powerful aminoglycoside antibiotic, tobramycin (TOBI), that is commonly used for the treatment of PA CF/COPD lung infections (Moreau-Marquis S, et al. 2009. Am J Respir Cell Mol Biol 41:305-313; Dal Negro R, et al. 2008. Adv Ther 25:1019-1030). Nitrite was used at 25 mM (aerobic) or 15 mM (anaerobic); EDTA, 1.0 mM; TOBI, 2 μg/ml. Anaerobic LB was supplemented with 0.1 M potassium phosphate, pH 6.5 and 100 mM KNO3 as a terminal electron acceptor for anaerobic growth.

The test system of series [3] is non-mucoid strains, PAO1 and FRD1/pmucA. To be noted: 15 mM A-NO2-, pH 6.5, anaerobic, 4 day incubation; cited from earlier work.
The next series concerns P. aeruginosa (PAO1). Particulars: 10 mM EDTA; 30 mM NaNO2; 10 mM EDTA-10 mM NaNO2.
For the next series, the system named is mucoid PA CF strain FRD1. To be noted: 15 mM A-NO2-, pH 6.5, anaerobic; cited from earlier work.
The subject of the next series is FRD1. To be noted: mucA mutant FRD1; cited from earlier work.
The test system of the next series is mucoid FRD1. Particulars: cited from earlier work.
For a further series, the system named is PA. Particulars: EDTA alone; cited from earlier work.
For a further series, the system named is P. aeruginosa. Nature of the series: Checkerboard assay of EDTA and antibiotics with and without acidified nitrite background. In kind it is cell-based, Pseudomonas aeruginosa. As to the method:
The antibiotic agents used in these studies included Tobramycin, Azithromycin, Colistin, Ticarcillin, Ciprofloxacin, Sulfametoxazole, Sulfamethazine, Tetracycline, Vancomycin, Imipenem, and Cefepime. […] Aerobic samples are incubated for 24 or 48 hours, and anaerobic samples are incubated for 48 hours.

Where two headings read alike, the source gives them in different places.

Protocol for P. aeruginosa (PAO1): BALB/c mice (8 per group) were infected with 1.7×10^6 P. aeruginosa (PAO1) in 1 mg/ml alginate.
The infected mice (n=8) were treated with either (i) 10 mM PBS, pH 6.5, (ii) 10 mM EDTA in PBS, pH 6.5, (iii) 30 mM NaNO2 in PBS, pH 6.5, or (iv) 10 mM EDTA-10 mM NaNO2 in PBS, pH 6.5. Agents were administered as inhaled therapies beginning at 12 hours post-inoculation and continued once daily.

With acidified nitrite [A-NO2^−], the “CFU of mucoid FRD1 in mixed culture” value in series [1] (three bacterial ratios) was < 10^3 CFU/ml. The “viability of mucoid FRD1 in mixed culture” value in series [1] was “lost viability”. In addition, the “viability of non-mucoid FRD1/pmucA in mixed culture” value in series [1] is on record as “maintained viability”. Besides, the entries for the “killing as a function of pH” value in the series on FRD1/pmucA and in the series on FRD1 were “little or no killing” and “more effectively at lower pH”, respectively. In addition, the “biomass density/thickness of biofilm” value in the series on P. aeruginosa biofilm was “reduction of biomass density/thickness”. Further, in series [2] (each agent separately), the toxicity in humans entry was “minimal toxicity”. Moreover, the competitive index with non-mucoid FRD1/pmucA (complemented strain FRD1/pmucA, CD1 mouse airways, 6 days) is around 1.0; in the series with mucoid FRD1 (FRD1, 10^6 intratracheally instilled into CD1 mouse airways, 6 days), around 0.2. The “decrease of bacteria in mouse lungs” value in the series on non-mucoid FRD1/pmucA (pH 6.5 and pH 5.5) is “not”; with mucoid FRD1 (pH 5.5, daily treatment) it was above 3 logs; in the series with mucoid FRD1 (pH 6.5, daily treatment), above 2 logs. For the same compound, in the series on anaerobic FRD1 biofilms (pH 6.5, 2 days), the “death of biofilm bacteria” value is listed as “nearly complete death of biofilm bacteria”. Moreover, the “biofilm structure and cell viability relative to control biofilms” value in the series on anaerobic FRD1 biofilms (pH 7.5, 2 days) is “no difference in biofilm structure and cell viability”. In addition, the “growth of PAO1” value in the series on PA strain PAO1 was “initially impaired”. The “viability of non-mucoid strains” value in series [3] is reported as “remained viable”. Further, the “average CFU/lung relative to control (PBS)” value in the series on P. aeruginosa (PAO1) is “reduced”. For the same compound, in the series with mucoid PA CF strain FRD1, the “rate of killing of mucoid FRD1” value is around 90 % per day. Also, the “bacteria in mouse lungs after long-term treatment” value in the series with mucoid FRD1 (15 mM NO2- daily for 16 days) was “no bacteria detected”.
Take `O=C(O)CN(CCN(CC(=O)O)CC(=O)O)CC(=O)O` [EDTA, ethylene diamine tetraacetic acid, reference compound]: the “biomass density/thickness of biofilm” value in the series on P. aeruginosa biofilm is reported as “reduction of biomass density/thickness”. For the same compound, in the series on PA, the “clinical course or airway microbial flora” value is “not modify the clinical course or the airway microbial flora”. Besides, the toxicity in humans result in series [2] (in vivo) is “minimal toxicity”. Further, the “growth of PAO1” value in the series with PA strain PAO1 is “initially impaired”. For the same compound, the “average CFU/lung relative to control (PBS)” value in the series with P. aeruginosa (PAO1) was “reduced”. In the series with P. aeruginosa (nitrite background 7.5 mM), the “MICs of EDTA upon addition of acidified nitrite” value was “decreased”.
Regarding `NC[C@H]1O[C@H](O[C@H]2[C@H](O)[C@@H](O[C@H]3O[C@H](CO)[C@@H](O)[C@H](N)[C@H]3O)[C@H](N)C[C@@H]2N)[C@H](N)C[C@@H]1O` [TOBI, tobramycin], the “growth of PAO1” value in the series on PA strain PAO1 is recorded as “initially impaired”. The “killing PA” value with PA strain PAO1 (anaerobic conditions, TOBI 2 μg/ml) is “not effective”. For the same compound, in the series with P. aeruginosa, the “bactericidal activity of the antibiotic when combined with NaNO2 and EDTA” value is given as “synergistically increases the bactericidal activity”.
Consider `CC[C@H]1OC(=O)[C@H](C)[C@@H](O[C@H]2C[C@@](C)(OC)[C@@H](O)[C@H](C)O2)[C@H](C)[C@@H](O[C@@H]2O[C@H](C)C[C@H](N(C)C)[C@H]2O)[C@](C)(O)C[C@@H](C)CN(C)[C@H](C)[C@@H](O)[C@]1(C)O` [Azithromycin], for which the “bactericidal activity of the antibiotic when combined with NaNO2 and EDTA” value in the series on P. aeruginosa is listed as “synergistically increases the bactericidal activity”. In the series with P. aeruginosa (compared with the other antibiotic agents), the “result in combination with EDTA/NO2-” value is listed as “best results so far in combination”.

Source of the values: US9925206B2, “Compositions and methods for treating bacterial infection” (priority 2015, dated 2018).
